Results published in patent US20230126447A1, “OCULAR DRUG DEPOT FOR COMPLEMENT-MEDIATED DISORDERS” (priority 2020, published 2023).
Where “and” joins values, the source holds several entries; their conditions need not be identical. Equal entries are not always repeated. Where two headings read alike, the source gives them in different places.

Columns and labels:
AP activity = test: cells; conditions: Oryctolagus cuniculus, Erythrocyte, read-out: IC50 for rabbit erythrocyte hemolysis
[1] = Phase 1 single ascending dose plasma pharmacokinetics in healthy volunteers; assay type: in vivo, human
Protocol: This study was conducted in healthy human volunteers in a randomized, double-blind design. Compound 1 or placebo was administered as a single oral dose to twenty-eight healthy volunteers in three separate dose groups. […] Pharmacokinetic data from each volunteer is summarized in Table 29, and plasma concentration data is shown graphically in FIG. 19.

[2] = Stability under melanin binding assay conditions; conditions: 1 h
Protocol: (§1) […] The melanin solution was stored in the dark at 37° C. until use.
(§2) The assay plates containing samples with and without melanin were incubated in the dark with shaking at 37° C. for 1 hour. Following incubation, the samples were centrifuged for 15 minutes at approximately 4000 rpm at 37° C. to sediment the melanin. Sample supernatant (3 μL) was added to 100 μL of acetonitrile containing the internal standard and then diluted with water (197 μL).
% Stability=Mean Total Conc. (μM) after 1 Hour/Mean Total Conc. (μM) at Time Zero×100%

[3] = In vitro binding to melanin from Sepia officinalis; conditions: S. officinalis melanin 50 μg/mL, PBS, 37° C., 1 hour
Protocol: as §1
Immediately after the assay, samples were added to an equal volume of warm PBS, aliquots (3 μL each) were removed, added to 100 μL of acetonitrile containing carbutamide as internal standard, and then diluted with water (197 μL). These time-zero samples, prepared in PBS only, were also used as calibration standards.
as §2
The column was set to a temperature of 55° C. […]
Analytes and internal standards were detected using an Applied Biosystems Sciex API-5500 triple quadrupole mass spectrometer with Agilent 1260 Infinity Binary Pump and Apricot Designs ADDA High-Speed Dual Arm Autosampling System. The instrument was equipped with an electrospray ionization source (600° C.) operated in the positive ion mode. Analytes and internal standards for all samples were monitored in the multiple-reaction-monitoring scan mode.

[4] = Group 1, 200 mg single oral dose, individual subjects
[5] = Group 2, 600 mg single oral dose, individual subjects
[6] = Group 3, 1200 mg single oral dose, individual subjects

With CC(=O)c1nn(CC(=O)N2C[C@H](F)C[C@H]2C(=O)Nc2cccc(Br)n2)c2ccc(-c3cnc(C)nc3)cc12 [Compound 1, (2S,4R)-1-(2-(3-Acetyl-5-(2-methylpyrimidin-5-yl)-1H-indazol-1-yl)acetyl)-N-(6-bromopyridin-2-yl)-4-fluoropyrrolidine-2-carboxamide] as the compound, how does the IC50 (AP activity) read?
Its IC50 is 27 nM.

And the “AUC(0-24)” value [1, 4]?
Its value is 3387.20 ng·h/mL and 4128.01 ng·h/mL and 2339.30 ng·h/mL and 3615.79 ng·h/mL and 1888.95 ng·h/mL and 2229.07 ng·h/mL.

What about the “AUC(0-∞)” value [1, 4] of the same compound?
The value was 3616.53 ng·h/mL and 4241.37 ng·h/mL and 2569.69 ng·h/mL and 3822.48 ng·h/mL and 1993.07 ng·h/mL and 2385.64 ng·h/mL.

And the Cmax [1, 4]?
Its Cmax is 950 ng/mL and 2060 ng/mL and 764 ng/mL and 1380 ng/mL and 635 ng/mL and 562 ng/mL.

What about the Tmax [1, 4] of the same compound?
Its Tmax is 1.25 h.

And the “AUC(0-24)” value [1, 5]?
Its value is 6591.55 ng·h/mL and 6135.83 ng·h/mL and 6020.33 ng·h/mL and 4079.30 ng·h/mL and 7288.50 ng·h/mL.

What about the “AUC(0-∞)” value [1, 5] of the same compound?
Its value is 6805.91 ng·h/mL and 7335.98 ng·h/mL and 6903.06 ng·h/mL and 4687.40 ng·h/mL and 8671.53 ng·h/mL.

What about the Cmax [1, 5] of the same compound?
The Cmax was 2480 ng/mL and 2100 ng/mL and 1380 ng/mL and 1810 ng/mL.

And the Tmax [1, 5]?
The Tmax was 2.00 h and 1.25 h.

What about the “AUC(0-24)” value [1, 6] of the same compound?
Its value is 11822.00 ng·h/mL and 10219.40 ng·h/mL and 8431.90 ng·h/mL and 11357.50 ng·h/mL and 14054.00 ng·h/mL.

And the “AUC(0-∞)” value [1, 6]?
Its value is 13297.29 ng·h/mL and 10982.71 ng·h/mL and 10243.93 ng·h/mL and 13190.18 ng·h/mL and 15424.93 ng·h/mL.

And the Cmax [1, 6]?
Its Cmax is 3080 ng/mL and 3230 ng/mL and 3530 ng/mL and 1940 ng/mL and 2530 ng/mL and 4100 ng/mL.

What about the AUC(0-t) ([1]; human, po, 200 mg, Group 1, 200 mg single oral dose, Mean (N 6), read-out: AUC(0-24)) of the same compound?
Its AUC(0-t) is 2930 ng·h/mL.

What about the AUC(0-inf) ([1]; human, po, 200 mg, Group 1, 200 mg single oral dose, Mean (N 6), read-out: AUC(0-∞)) of the same compound?
Its AUC(0-inf) is 3100 ng·h/mL.

And the Cmax ([1]; human, po, 200 mg, Group 1, 200 mg single oral dose, Mean (N 6), read-out: Cmax)?
The Cmax was 1060 ng/mL.

What about the Tmax ([1]; human, po, 200 mg, Group 1, 200 mg single oral dose, Mean (N 6), read-out: Tmax) of the same compound?
The Tmax was 1.79 h.

And the Tmax ([1]; human, po, 200 mg, Group 1, 200 mg single oral dose, individual subjects, read-out: Tmax)?
Its Tmax is 1.5 h.

And the AUC(0-t) ([1]; human, po, 200 mg, Group 1, 200 mg single oral dose, read-out: Mean AUC(0-24))?
Its AUC(0-t) is 2390 ng·h/mL.

What about the AUC(0-inf) ([1]; human, po, 200 mg, Group 1, 200 mg single oral dose, read-out: Mean AUC(0-∞)) of the same compound?
The AUC(0-inf) was 3020 ng·h/mL.

And the Cmax ([1]; human, po, 200 mg, Group 1, 200 mg single oral dose, read-out: Mean Cmax)?
The Cmax was 1060 ng/mL.

What about the AUC(0-t) ([1]; human, po, 600 mg, Group 2, 600 mg single oral dose, Mean (N 6), read-out: AUC(0-24)) of the same compound?
Its AUC(0-t) is 6190 ng·h/mL.

And the AUC(0-inf) ([1]; human, po, 600 mg, Group 2, 600 mg single oral dose, Mean (N 6), read-out: AUC(0-∞))?
Its AUC(0-inf) is 7090 ng·h/mL.

What about the Cmax ([1]; human, po, 600 mg, Group 2, 600 mg single oral dose, Mean (N 6), read-out: Cmax) of the same compound?
Its Cmax is 2020 ng/mL.

What about the Tmax ([1]; human, po, 600 mg, Group 2, 600 mg single oral dose, Mean (N 6), read-out: Tmax) of the same compound?
The Tmax was 1.63 h.

And the AUC(0-t) ([1]; human, po, 600 mg, Group 2, 600 mg single oral dose, individual subjects, read-out: AUC(0-24))?
The AUC(0-t) was 7020 ng·h/mL.

What about the AUC(0-inf) ([1]; human, po, 600 mg, Group 2, 600 mg single oral dose, individual subjects, read-out: AUC(0-∞)) of the same compound?
The AUC(0-inf) was 8160 ng·h/mL.

What about the Cmax ([1]; human, po, 600 mg, Group 2, 600 mg single oral dose, individual subjects, read-out: Cmax) of the same compound?
The Cmax was 2180 ng/mL.

What about the AUC(0-t) ([1]; human, po, 600 mg, Group 2, 600 mg single oral dose, read-out: Mean AUC(0-24)) of the same compound?
The AUC(0-t) was 6190 ng·h/mL.

And the AUC(0-inf) ([1]; human, po, 600 mg, Group 2, 600 mg single oral dose, read-out: Mean AUC(0-∞))?
Its AUC(0-inf) is 7090 ng·h/mL.

What about the Cmax ([1]; human, po, 600 mg, Group 2, 600 mg single oral dose, read-out: Mean Cmax) of the same compound?
The Cmax was 2020 ng/mL.

And the AUC(0-t) ([1]; human, po, 1200 mg, Group 3, 1200 mg single oral dose, Mean (N 6), read-out: AUC(0-24))?
Its AUC(0-t) is 11400 ng·h/mL.

What about the AUC(0-inf) ([1]; human, po, 1200 mg, Group 3, 1200 mg single oral dose, Mean (N 6), read-out: AUC(0-∞)) of the same compound?
Its AUC(0-inf) is 13200 ng·h/mL.

And the Cmax ([1]; human, po, 1200 mg, Group 3, 1200 mg single oral dose, Mean (N 6), read-out: Cmax)?
Its Cmax is 3070 ng/mL.

And the Tmax ([1]; human, po, 1200 mg, Group 3, 1200 mg single oral dose, Mean (N 6), read-out: Tmax)?
The Tmax was 2.5 h.

And the AUC(0-t) ([1]; human, po, 1200 mg, Group 3, 1200 mg single oral dose, individual subjects, read-out: AUC(0-24))?
Its AUC(0-t) is 12700 ng·h/mL.

What about the AUC(0-inf) ([1]; human, po, 1200 mg, Group 3, 1200 mg single oral dose, individual subjects, read-out: AUC(0-∞)) of the same compound?
Its AUC(0-inf) is 15800 ng·h/mL.

And the Tmax ([1]; human, po, 1200 mg, Group 3, 1200 mg single oral dose, individual subjects, read-out: Tmax)?
Its Tmax is 2.5 h.

What about the AUC(0-t) ([1]; human, po, 1200 mg, Group 3, 1200 mg single oral dose, read-out: Mean AUC(0-24)) of the same compound?
Its AUC(0-t) is 11400 ng·h/mL.

And the AUC(0-inf) ([1]; human, po, 1200 mg, Group 3, 1200 mg single oral dose, read-out: Mean AUC(0-∞))?
Its AUC(0-inf) is 13200 ng·h/mL.

And the Cmax ([1]; human, po, 1200 mg, Group 3, 1200 mg single oral dose, read-out: Mean Cmax)?
The Cmax was 3070 ng/mL.

And the “Mean Stability” value [2]?
Its value is 94.3%.

And the “Bmax (binding capacity)” value [3]?
Its value is 137 nmol/mg melanin.
